Results: patent US20210371379A1, “NOVEL SALT OF 4-({(4S)-1-(4-CARBAMIMIDOYLBENZOYL)-4-[4(METHYLSULFONYL)PIPERAZIN-1-YL]-L-PROLYL}AMINO) BENZOIC ACID AND NOVEL CRYSTAL FORM THEREOF” (ONO PHARMACEUTICAL CO., LTD., priority 2018, published 2021)

Assays:
Format in all cases: physicochemical
[1] = Hygroscopicity evaluation (isotherm adsorption curve); conditions: 25° C., relative humidity in the range of 5% to 70%
Procedure: The isotherm adsorption curve was measured under the following conditions. Ditosylate, monoacetate and pentahydrate of Compound A were measured under Condition 1, and besylate of […] was measured under Condition 2.
Measurement temperature: 25° C.
Measurement range: Relative humidity of 5 to 95%
Measurement interval: Relative humidity of 5%
Measurement range: Relative humidity of 0 to 95%

[2] = Chemical stability test: residual rate measurement by HPLC after storage; conditions: for Residual rate (%): versus sample stored at −20° C.
Procedure: The chemical stability of crystals of ditosylate, dibesylate, pentahydrate and monoacetate of Compound A was measured by the following method and conditions.
About 1.5 to 3 mg of a test compound was weighed in a lab tube and stored under the following conditions.
After storage, the residual rate (%) of the stored sample under each condition was calculated by HPLC based on the area percentage of main medicine of the sample stored at −20° C. In addition, appearance was visually observed and compared with the sample stored at −20° C. […]
Comparison object of each sample was stored at −20° C.
An evaluation sample (0.8 mg) was dissolved in a mixed solution of acetonitrile/100 mM NaClO4 […] about 0.8 mL (sample concentration: 1.0 mg/mL) acetonitrile/100 mmol/L NaClO4 aq. (pH3.0) (3/1) to prepare a solution of 1.0 mg/mL (concentration as salt).
Detector: Ultraviolet absorptiometer (measurement wavelength: 265 nm)
Column: SPELCO Ascentis Express (150 mm×4.6 mm, S-2.7 μm)
Column temperature: 25° C.
Mobile phase: Solution A: 100 mmol/L NaClO4 aq. (pH 3.0), Solution B: acetonitrile
Area measurement range: 34.6 minutes

[3] = Physical stability: powder X-ray measurement before and after storage; conditions: 25° C.-60% RH, 2 months
Procedure: The physical stability of monoacetate and ditosylate of Compound A was measured by the following method and conditions.
Test compounds were respectively weighed in a lab tube at about 20 mg for monoacetate and about 40 mg for ditosylate, and stored under the following conditions.
Device: D8 DISCOVER with GADDS manufactured by BRUKER axs

[4] = crystals stored at 40° C. for 2 months
[5] = crystals stored at 40° C.-75% RH (opened) for 2 months
[6] = crystals stored at 60° C. for 1 month

Row | weight gain ([1]; listed as pentahydrate of Compound A) [wt %] | Residual rate (%) [2, 4] [%] | Residual rate (%) [2, 5] [%] | Residual rate (%) [2, 6] [%] | residual rate ([2]; under the conditions of 40° C.-75%) | weight gain [1] [wt %] | weight gain ([1]; listed as monoacetate of Compound A, monoacetate) [wt %] | Residual rate (%) ([2]; crystals stored at 40° C. for 2 months, monoacetate) | Residual rate (%) ([2]; crystals stored at 40° C.-75% RH (opened) for 2 months, monoacetate) | Residual rate (%) ([2]; crystals stored at 60° C. for 1 month, monoacetate) | SMILES | change of powder X-ray diffraction spectrum before and after storage [3]
1 | 12.2 | 36.3 | 37 | 23.1 | reduced residual rate | – | – | – | – | – | CS(=O)(=O)N1CCN([C@H]2C[C@@H](C(=O)Nc3ccc(C(=O)O)cc3)N(C(=O)c3ccc(C(=N)N)cc3)C2)CC1 [Pentahydrate, 4-({(4S)-1-(4-Carbamimidoylbenzoyl)-4-[4-(methylsulfonyl)piperazin-1-yl]-L-prolyl}amino) benzoic acid pentahydrate] | –
2 | – | – | 99.5 | 100 | – | 1.9 | – | – | – | – | CS(=O)(=O)N1CCN([C@H]2C[C@@H](C(=O)Nc3ccc(C(=O)O)cc3)N(C(=O)c3ccc(C(=N)N)cc3)C2)CC1.O=S(=O)(O)c1ccccc1 [Dibesylate, 4-({(4S)-1-(4-Carbamimidoylbenzoyl)-4-[4-(methylsulfonyl)piperazin-1-yl]-L-prolyl}amino) benzoic acid dibenzenesulfonate] | –
3 | – | 100 | 99.3 | 100 | – | 1.5 | – | – | – | – | CS(=O)(=O)N1CCN([C@H]2C[C@@H](C(=O)Nc3ccc(C(=O)O)cc3)N(C(=O)c3ccc(C(=N)N)cc3)C2)CC1.Cc1ccc(S(=O)(=O)O)cc1 [Ditosylate, 4-({(4S)-1-(4-Carbamimidoylbenzoyl)-4-[4-(methylsulfonyl)piperazin-1-yl]-L-prolyl}amino) benzoic acid di(4-toluenesulfonate)] | no significant peak change was recognized
4 | – | – | – | – | – | – | 6.4 | 99 | 95 | 97.5 | CS(=O)(=O)N1CCN([C@H]2C[C@@H](C(=O)Nc3ccc(C(=O)O)cc3)N(C(=O)c3ccc(C(=N)N)cc3)C2)CC1 [Monoacetate, 4-({(4S)-1-(4-Carbamimidoylbenzoyl)-4-[4-(methylsulfonyl)piperazin-1-yl]-L-prolyl}amino) benzoic acid monoacetate] | change in the spectra was recognized
